The structures appear in SMILES notation.

This assay relates to liver-adipose crosstalk MPSs. Put plainly: Disease severity in NAFLD liver-adipose crosstalk MPS after treatment. The assay is classed as cell-based, human. Conditions: MHM-induced NAFLD liver-adipose crosstalk MPS; no data shown. The procedure:
The disease modifying potential of targets is evaluated using one or both of large and small molecules and functional genomics tools, such as CRISPR. For example, large molecules can include ligand antagonists, Humira (adalimumab) blocks, and TNF-α. Healthy and NAFLD liver-adipose MPSs are established previously described. Following disease induction, the liver-adipose MPSs are treated with small molecules (alone and in combination) or CRISPR short guide RNAs (sgRNAs) that modulate the activity or expression of disease-relevant signaling pathways (e.g. CCR2-5, FXR, PPARγ, PPARβ/δ, and PPARγ) as previously described in relation to FIG. 4. The dosing regimen are optimized using the efficacy data generated using the liver and adipose spheroids previously described. The disease-modifying potential of the therapeutic treatment regimens in the liver-adipose crosstalk MPS 120 are determined using phenotypic (e.g., IR, steatosis, steatohepatitis, and fibrosis) and biomarker (apoptosis, hepatokine, adipokine, cytokine) readouts.
In the liver-adipose MPS 120, MHM induces a NAFLD phenotype in the liver (e.g., oxidative stress, steatosis, and fibrosis) and adipose tissue (e.g., steatosis) compared to MPSs cultured in healthy medium. Clinical biomarkers of NAFLD (e.g., AST, ALT, cytokeratin-18) are elevated in diseased systems compared to healthy systems. […]

In the case of `CCCCOCCOc1ccc(-c2ccc3c(c2)/C=C(/C(=O)Nc2ccc([S@@+]([O-])Cc4cncn4CCC)cc2)CCCN3CC(C)C)cc1` [cenicriviroc], the “severity of the steatosis, fibrosis, and insulin resistance” value is recorded as “reduce the severity”.

As for `CSc1ccc(C(=O)/C=C/c2cc(C)c(OC(C)(C)C(=O)O)c(C)c2)cc1` [elafibranor], the “severity of the steatosis, fibrosis, and insulin resistance” value is “reduce the severity”.

The record behind these values is patent US20210156846A1, “MICROFLUIDIC PLATFORM FOR TARGET AND BIOMARKER DISCOVERY FOR NON-ALCOHOLIC FATTY LIVER DISEASE” (Javelin Biotech, Inc., priority 2019, published 2021).
